Results as given in patent publication US7951232B2, “Surface coating compositions and methods” (Elevance Renewable Sciences, Inc., priority 2006, dated 2011).

What was measured:
[1] = system: Pediococcus acidolactici ATCC 8042; assay: Growth inhibition in MRS medium at various pH levels (OD600); type: cell-based, Pediococcus acidilactici; conditions: 0.05% w/v (as 9-DA)
Method: (§1) Efficacy of potassium salt of 9-DA were tested at various pH levels against the following: Bacillus cereus ATCC 14579, Pediococcus acidolactici ATCC 8042, Pseudomonas straminea ATCC 33636, and Lactobacillus casei ATCC 334. Stock cultures of each organism were transferred into MRS liquid medium. MRS medium (Difco 288130) was purchased from Becton, Dickinson and Company, Sparks, Md. The efficacy of the potassium salt of 9-DA (K-9-DA) was tested at different concentrations and pH levels, including 6.75 (unadjusted), 7.5, and 8.5. The selected organisms were incubated overnight in 5 ml of MRS medium at 35° C. and 250 rpm. MRS media with K-9-DA was prepared, along with a control of straight media (no antimicrobial added). The antimicrobial agent was added by weight/volume percent to the media. The purity, 99% for K-9-DA, was taken into account. The pH adjustments to 7.5 and 8.5 were done with 50% potassium hydroxide. Filter sterilization was used instead of autoclaving to prevent adverse chemical reactions at higher pH and temperature. The target for initial cell density was 10^5 to 10^6 cfu/ml. According to the McFarland standard, 0.01 OD600 is equivalent to approximately 10^8 cfu/ml. To achieve the proper dilution, 30 μl of overnight culture diluted to 0.01 OD600 was added to the 3 ml of media in each tube. The tubes were incubated at 35° C. with the exception of Pseudomonas strains which were incubated at 30° C. Treatments were all done in duplicate. All strains were shaken at 250 rpm, with the exception of Lactobacillus (because it is anaerobic). OD600 readings were taken at 0, 19, 25.5, 42.5 and 49 hours.
“Percent reduction in growth vs. control” was defined as (1−abs. of treatment/abs. of control)×100.

[2] = system: microorganisms of Table 15 with the exception of Bacillus licheniformis; assay: Growth inhibition in MRS medium (OD600), summary over organisms; type: cell-based; conditions: all concentrations tested
Method: (§2) Efficacy of the potassium salt of 9-DA was determined through incubation of the following organisms in the presence of varying concentrations of the potassium salt: Pseudomonas straminea ATCC 33636, Bacillus subtilis ATCC 6051, Bacillus licheniformis ATCC 14580, Bacillus cereus ATCC 14579, Pediococcus acidilactici ATCC 8042, and Lactobacillus casei ATCC 334.
(§3) Stock cultures of each organism were transferred into MRS liquid medium. MRS medium (Difco 288130) was purchased from Becton, Dickinson and Company, Sparks, Md.
(§4) The efficacy of different levels of the potassium salt of 9-DA was tested depending on the organism to inhibit the growth of various microorganisms indicated above.
(§5) The selected organisms were incubated overnight in 5 ml of MRS medium at 35° C. and 250 rpm. MRS media with K-9-DA was prepared, along with a control of straight media (no antimicrobial added). The concentrated antimicrobial agents were diluted with the appropriate media required for the respective microorganisms, to reach the required concentrations for the studies as indicated below. The antimicrobial agents were added by weight/volume percent on an ‘as 9-DA’ basis to the media. The purity of the antimicrobial agent (99% for K-9-DA) was taken into account. The pH of the medium was not adjusted. The target for initial cell density was 10^5 to 10^6 cfu/ml. […] OD600 readings were taken at 0, 4, 17, 23 and 47 hours. […]

[3] = system: Bacillus licheniformis ATCC 14580; assay: Growth inhibition in MRS medium (OD600); type: cell-based; conditions: 0.075% w/v 9-DA from K9-DA, pH not adjusted, listed as potassium 9-DA
Method: as §2, §3, §4, §5

[4] = system: Lactobacillus casei ATCC 334; assay: Growth inhibition in MRS medium at various pH levels (OD600); type: cell-based; conditions: 0.075% w/v (as 9-DA)
Method: as §1, with “The tubes were incubated at 35° C. with the exception of Pseudomonas strains which were incubated at 30° C. Treatments were all done in duplicate. All strains were shaken at 250 rpm, with the exception of Lactobacillus (because it is anaerobic).” left out, “hours. […]” for “hours.”

[5] = system: Escherichia coli 0157:H7, ATCC 43895; assay: Time-Kill Procedure (ASTM), rate of kill; type: cell-based; conditions: all concentrations (0.01, 0.05 and 0.1%), after 10 minutes
Method: (§6) The rate of kill for these organisms upon exposure to 9-decenoic acid was determined using the American Society for Testing and Materials (ASTM) procedure entitled “Standard Test Method for the Assessment of Microbiocidal Activity of Test Materials Using a Time-Kill Procedure”, October 1998. This procedure incorporates the recommendations described in the “Manual of Clinical Microbiology,”5th ed., edited by A. B. Balows et al., ASM, Washington, and is directed by the Federal Register, June 1994.
(§7) Stock cultures were transferred into TSB and incubated for 18-24 hours at 37±2° C. A second transfer was made onto TSA plates and were incubated for 18-24 hours at 37±2° C. The plates were removed from incubation and the bacterial growth washed from the agar surface using Butterfield's Phosphate Buffered Dilution Water (PBDW). The bacterial suspension was adjusted to contain approximately 10^8 Colony Forming Units (CFU)/ml with PBDW using spectrophometric methods extant in the laboratory.
(§8) The concentrated 9-decenoic acid was diluted 1:40 in filter sterilized isopropanol to yield a 2.5% stock solution. Subsequent dilutions to the 9-decenoic acid stock solutions were made with sterile Deionized Water (DI) to achieve concentrations of 0.1%, 0.05%, 0.01%, and 0.001%. The pH was determined for each dilution; pH values ranged from 4.4-4.1. Additionally, the 9-decenoic acid stock solution was adjusted to pH 7 with 1 N NaOH and serially diluted with sterile DI to achieve concentrations of 1.0%, 0.75% and 0.5%.
(§9) Compliant with the ASTM procedure cited, for each challenge microorganism a 9.9 ml aliquot of the prepared 9-decenoic acid suspension was added to a sterile tube. A 0.1 ml aliquot of the standardized inoculum was added to the 9-decenoic acid solution representing the start of the test exposure. The inoculated 9-decenoic acid solution was immediately mixed thoroughly. The inoculated suspension was held at room temperature for 0.5, 2, 5, 7 and 10 minute exposure times for tests run at ˜pH 4. The pH 7 tests were held at room temperature for 0.5 and 2 minutes.
(§10) At each exposure sample time, a 1.0 ml aliquot of the inoculated 9-decenoic acid suspension was transferred to 9.0 ml of D/E Neutralizing Broth. Additional ten-fold serial dilutions were made in PBDW and plated in duplicate on TSA. All plates were incubated for 48 hours at 37±2° C. and visually examined for growth. The plates are enumerated, recorded and log kill determined for each time point.
(§11) The following study controls were conducted: culture purity, neutralizer sterility, initial suspension population, test population, neutralization verification and a negative control using isopropanol. Culture purity was verified by performing a streak plate for isolated colonies on the each culture used. All cultures were determined to be pure based on consistent colony morphology typical for the test organism. The neutralizer sterility was confirmed by no growth in an incubated sample.
(§12) The population of the initial and test culture were determined by serial dilution, plating and enumerating after incubation. The initial suspension were determined to be ≧10^4 CFU/ml. The test culture population was used for calculation of the log reduction achieved at each time point.
(§13) Neutralization effectiveness was verified by a filtration test. For each organism, four tubes were prepared with 9 ml D/E Neutralizing Broth and fewer than 100 CFU/ml of the organism. A 1.0 ml aliquot of prepared 9-decenoic acid was added to each tube. Immediately, the entire contents of 2 tubes were filtered through a filtration apparatus and rinsed with sterile diluent. The remaining 2 tubes were held at room temperature for 30 minutes and then the entire contents were filtered using the same procedure. The filters were aseptically transferred to TSA plates and incubated for 48 hours at 37±2° C. and visually examined for growth.
(§14) This control was inoculated, subcultured and incubated as in the test procedure.

[6] = system: Candida albicans, ATCC 10231; assay: Time-Kill Procedure (ASTM), rate of kill; type: cell-based; conditions: all concentrations (0.01, 0.05 and 0.1%), after 10 minutes
Method: as §6, §7, §8, §9, §10, §11, §12, §13, §14

[7] = system: Aureobasidium pullulans ATCC 12536; assay: Dry film preservative test, growth on PDA agar surface; type: cell-based; conditions: 0.5% in PDA agar
Method: (§15) The efficacy of 9-decenoic acid and the methyl ester of 9-decenoic acid as a dry film preservative was determined through the incubation of Trichoderma virens ATCC 9645, Cladosporium cladosporiodes ATCC 16022 and Aureobasidium pullulans ATCC 12536 in the presence of varying concentrations of 9-decenoic acid or the methyl ester of 9-decenoic acid on an agar surface.
(§16) Fungal spores were hydrated overnight in 0.1% Tween 80 and then plated on Potato Dextrose Agar (PDA) and incubated at 25-30° C. for 6 days. The spores were washed from the surface with 5 mls of 0.1% Tween 80 and enumerated.
(§17) PDA plates with prepared according to the manufactures instructions through sterilization. The agar was tempered to approximately 50° C. and filter sterilized 9-decenoic acid was added to achieve concentrations of 0.1, 0.5 and 1.0% in the agar. Additionally, one concentration of the methyl ester of 9-decenoic acid (0.5%) was also prepared. The agar was thoroughly mixed and poured into sterile petri plates and allowed to solidify.
(§18) The agar plates were inoculated with the spore solution to achieve 10^2 spores/plate. The plates were incubated at 25-30° C. in Ziploc bags with a wet paper towel to keep the moisture level high. The plates were examined for growth after 4, 7, 16, 24 and 31 days. The percent coverage of growth on the agar surface was recorded at each sample point.

[8] = system: Cladosporium cladosporiodes ATCC 16022; assay: as above; type: cell-based; conditions: 0.5% in PDA agar
Method: as §15, §16, §17, §18

[9] = system: Trichoderma virens ATCC 9645; assay: as above; type: cell-based; conditions: 0.5% in PDA agar
Method: as §15, §16, §17, §18

[10] = system: Escherichia coli 0157:H7 ATCC 43895; assay: MIC and MBC determination in Mueller-Hinton Broth; type: cell-based; conditions: 37±2° C., 20-24 hours
Method: Efficacy of 9-decenoic acid and the methyl ester of 9-decenoic acid against Pseudomonas aeruginosa ATCC 15442, Escherichia coli 0157:H7 ATCC 43895 and Candida albicans ATCC 10231 was measured through the determination of the minimum inhibitory concentration (MIC) and minimum bacteriocidal concentration (MBC) using the procedures in the Federal Register, June 1994 and the present NCCLS M11-A4 protocol.
Stock cultures of each organism were transferred onto Mueller-Hinton Agar (MHA) plates and incubated for 24±2 hours at 37±2° C. On the day of the test, the top of at least three to five well-isolated colonies were transferred via wire loop to a tube containing 4 to 5 ml of Trypticase Soy Broth (TSB). The TSB culture was incubated for 2 to 6 hours and turbidity was adjusted with sterile saline to achieve the turbidity of the 0.5 McFarland Standard.
The concentrated 9-decenoic acid was diluted 1:40 in Mueller-Hinton Broth (MHB) to yield a 2.5% stock solution. The test solution of the methyl ester of 9-decenoic acid was formulated in the same manner. For each organism, 12 dilutions of the 9-decenoic acid and the methyl ester of 9-decenoic acid in MHB were prepared ranging from 0.2500 to 0.0005%. A 2-ml aliquot of appropriately diluted 9-decenoic acid or the methyl ester of 9-decenoic acid solution was placed in each tube. Each tube was inoculated with 0.05 ml of a 1:10 dilution of one challenge organism. Tubes were incubated at 37±2° C. for 20-24 hours and observed for growth or no growth. […] Controls were run for sterility, viability and organism confirmation. It was determined that all cultures were viable and pure.
The MBC was defined as the concentration of 9-decenoic acid or the methyl ester of 9-decenoic acid that completely eradicated viable organisms from the test system.

[11] = system: Pseudomonas aeroginosa, ATCC 15442; assay: Time-Kill Procedure (ASTM), rate of kill; type: cell-based, Pseudomonas aeruginosa; conditions: all concentrations (0.01, 0.05 and 0.1%), after 10 minutes
Method: as §6, §7, §8, §9, §10, §11, §12, §13, §14

C=CCCCCCCCC(=O)O.[K] [K9-DA, Potassium-9 Decenoic Acid]
% reduction in growth vs. control ([1]; Non-pH adjusted (6.75)): 90.6%
% reduction in growth vs. control ([1]; pH 7.5): 93.2%
% reduction in growth vs. control ([1]; pH 8.5): 95.6%
reduction in growth when compared to controls [2]: ≥ 95%
% reduction in growth vs. control [3]: 88.63%
% reduction in growth vs. control ([4]; Non-pH adjusted (6.75)): 88.4%
% reduction in growth vs. control ([4]; pH 7.5): 91.7%

C=CCCCCCCCC(=O)OC [Methyl ester of 9-decenoic acid, methyl ester of 9-decenoic acid]
log reduction in time kill test [5]: < 1 log
log reduction in time kill test [6]: < 1 log
time up to which growth of the culture was significantly inhibited [7]: 16 days
Percentage coverage of agar surface ([7]; 4 days): 0%
Percentage coverage of agar surface ([7]; 7 days): 2.5%
Percentage coverage of agar surface ([7]; 16 days): 10%
Percentage coverage of agar surface ([7]; 24 days): 50%
Percentage coverage of agar surface ([7]; 31 days): 75%
time up to which growth of the culture was significantly inhibited [8]: 4 days
Percentage coverage of agar surface ([8]; 4 days): 10%
Percentage coverage of agar surface ([8]; 7 days): 50%
Percentage coverage of agar surface ([8]; 16 days): 50%
Percentage coverage of agar surface ([8]; 24 days): 50%
Percentage coverage of agar surface ([8]; 31 days): 50%
time up to which growth of the culture was significantly inhibited [9]: 4 days
Percentage coverage of agar surface ([9]; 4 days): 60%
Percentage coverage of agar surface ([9]; 7 days): 95%
Percentage coverage of agar surface ([9]; 16 days): 100%
Percentage coverage of agar surface ([9]; 24 days): 100%
Percentage coverage of agar surface ([9]; 31 days): 100%
MIC ([10]; Mueller-Hinton Broth): 0.1250%
MBC ([10]; no-growth tubes subcultured on TSA): 0.1250%
log reduction in time kill test [11]: < 1 log
